pIC50: −log10 of the molar value. Counter-ions that a name gives are not always drawn.
Key:
human platelets = test: Inhibition of the arachidonic acid-induced aggregation of human platelets in vitro; assay type: cell-based; conditions: human platelet-rich plasma; 2×10^-4 M arachidonic acid; preincubation 10 min at 37° C.
Protocol: 1. Inhibition of the arachidonic acid-induced aggregation of human platelets in vitro.
Blood is taken, by careful cannulation of the antecubital vein, from apparently healthy male and female volunteers, who have taken no medicaments in the preceding 10-day period, and is immediately stabilized with sodium citrate (ad. 0.38%). Platelet-rich plasma (PRP) is obtained in the supernatant by centrifugation at 140×g for 15 minutes, and the platelet content of this should be in the range 2.5-3.5×10^8 /ml (Coulter counter). The platelet aggregation is followed optically by measurement of the transmission of light in a Born aggregometer. The total volume of the test mix is 0.25 ml. The preincubation time at 37° C. with the test product is 10 min, and aggregation is then induced with 2×10^-4 M arachidonic acid. The test product is, as a rule, tested in five different concentrations in the PRP from three different donors. Dose-effect curves are drawn from the maximal aggregation amplitudes in each case, and the IC50 values* are determined graphically. The measurements are carried out in the period 1-6 hours after blood sampling. […]
The following IC50 values for the inhibition of the arachidonic acid-induced aggregation of human platelets in vitro were determined by the method described above for the compounds according to the invention: […]

laser-induced thrombosis = test: Inhibition of laser-induced thrombosis; assay type: in vivo, Sprague-Dawley rats; conditions: one hour before start, rat mesentery arterioles
Protocol: 3. Inhibition of laser-induced thrombosis
The investigations of the compounds according to the invention in the model of laser-induced thrombosis are carried out on male or female Sprague-Dawley rats with a body weight of about 200 g. The animals to be investigated are premedicated s.c. with 0.1 mg of atropine sulfate in solution, and anesthetized i.p. with 100 mg of ketamine hydrochloride and 4 mg of xylazine per kg of body weight. Arterioles from the mesentery, with a diameter of 12-25 μm, are used for the investigation. During the measurement, the exposed mesentery is hyperfused with warmed physiological NaCl (37° C.) or is covered with degassed liquid paraffin. The beam of a 4 W argon laser (supplied by Spectra Physics, Darmstadt, FRG) is introduced coaxially into the inverted ray path of a microscope (ICM 405, LD-Epilan 40/0.60; supplied by Zeiss, Oberkochen, FRG) by means of a ray adaptation and adjustment system (supplied by BTG, Munich, FRG). The wavelength used is 514.5 nm, with an energy above the objective of 40 mW. The single-shot exposure time is 1/15 sec. The diameter of the effective laser beam on the vessel is 10 μm, and with repeated exposure the next shot takes place 5 μm upstream in each case, directly on the vessel wall. All the measurement procedures are filmed by video camera (Sony, Trinicon tube) and stored in a recorder (Sony, U-matic 3/4). A survey image of the terminal vessels which are to be investigated is provided by the transillumination method using the same microscope with low magnification (LD-Epilan 8/0.20). A video-analyzer and a correlator are used to determine the rate of flow in the arterioles under investigation. […]
The number of shots needed to induce a defined thrombus was counted. The frequency of the laser flashes was one lesion every 2 minutes, all the thrombi with a minimum size of 1/4 of the vessel radius which were formed during the observation period being counted and measured. The results of the experiment were statistically analyzed using the X^2 test (L. Cavalli-Sforza, Biometrie, Stuttgart, 1969, page 49 et seq.).

[1] = system: Thrombin-induced TXA2 release; test: Thrombin-induced TXA2 release in platelet-rich human plasma in vitro (TXB2 determined radioimmunologically); assay type: cell-based; conditions: 0.5 h, relative to without test substance (=100%); for activity at 1 µM: test substance 10^-6 mol/l; for activity at 0.1 µM: test substance 10^-7 mol/l
Protocol: 2. Thrombin-induced TXA2 release in platelet-rich human plasma in vitro
Blood is taken, by careful cannulation of the antecubital vein, from apparently healthy male and female volunteers, who have taken no medicaments in the preceding 10-day period, and is immediately stabilized with sodium citrate (ad. 0.38%). Platelet-rich plasma (PRP) is obtained in the supernatant by centrifugation at 140×g for 15 minutes, and the platelet content of this should be in the range 2.5-3.5×10^8 /ml. The platelets are sedimented by renewed centrifugation (10 min at 2,000×g), and then resolubilized in Tyrode's solution (about 7×10^7 platelets/ml, total volume per measurement 0.5 ml). After addition of test substance, the mixture is incubated at 37° C. for 10 min, and then 7.2×10^-7 M arachidonic acid and 0.5 U thrombin are added, and incubation is carried out at 37° C. for 30 min. This is stopped in an ice bath and, after addition of tracer and TXB2 -specific antibodies (NEN, Dreieich), the TXB2 content is determined radioimmunologically (TXA2 is unstable under the experimental conditions and thus cannot be measured. The stable hydrolysis product TXB2 is measured in its place). The measured variable is the relative TXB2 content in the platelet incubations from two or three different donors with and without (=100%) the test substance.
The following figures for the TXB2 release after administration of the test substance were determined, for example, for the compounds according to the invention by the method described above: […]

## Cc1cncn1Cc1ccc2cc(C(=O)O)ccc2c1.Cl [Example 4, 6-(5-Methyl-1-imidazolyl)methyl-2-naphthoic acid hydrochloride]
Human platelets
  pIC50: 6.27
laser-induced thrombosis; 1 mg/kg p.o.
  Number of laser shots to form a thrombus (compared with control): +16%
laser-induced thrombosis; 5 mg/kg p.o.
  Number of laser shots to form a thrombus (compared with control): +53%
laser-induced thrombosis; 10 mg/kg p.o.
  Number of laser shots to form a thrombus (compared with control): +96%
[1]
  activity at 1 µM: 9%
  activity at 0.1 µM: 19%
[1]; test substance 10^-8 mol/l
  activity at 0.01 µM: 98%

## CC(c1ccc2cc(C(=O)O)ccc2c1)n1ccnc1 (stereo not shown) [Example 2, 6-[1-(1-Imidazolyl)ethyl]-2-naphthoic acid hydrochloride]
Human platelets
  pIC50: 5.52
[1]
  activity at 1 µM: 31%
  activity at 0.1 µM: 55%

Source: patent US4778817A, “Naphthyl imidazolyl compounds and pharmaceutical compositions” (priority 1985, dated 1988)
